Melting point data for 91 molecules are collected here from a melting point compilation (Tetko et al.; mined from patent text by program, amines drawn as free bases though some values may be those of a salt).

The structures appear in SMILES notation.

`CN1CCc2cccc3c4c(n(c23)CC1)CCC4`: the melting point (commonly the temperature, or range, at which the solid turns liquid) fell in the range of 128 to 130 °C. As to `CC(C)S(=O)(=O)c1cc(OCc2ccccc2F)c2[nH]nc(Nc3nccs3)c2c1`, the melting point lay within 268 to 269 °C. In turn, `Cc1c(C#N)sc2nc(-c3ccccc3)nc(N3CCN(C)CC3)c12` displayed a melting point of 223 to 225 °C. In the case of `Cc1cc(OC(F)F)nc(NC(=O)NS(=O)(=O)c2ccccn2)n1`, the melting point lay within 150 to 151 °C.

The molecule `O=C(O)C(CF)=NOCC=Cc1ccccc1` returned a melting point of 81 to 83 °C. With `CCOC(=O)c1c(C)nc(N2CCCCC2)c2nccnc12`, the melting point fell in the range of 73 to 74 °C. As for `COc1ccc2oc3cccc(NCCN4CCCC4)c3c(=O)c2c1`, the figure is 92 to 93 °C.

Take `C=C1C(=O)N(C)CCC1c1cccc(OC)c1` (stereo unspecified): the melting point was 67 to 70 °C.

Molecule `CC(CC(=O)O)=NNC(=N)N` had a melting point of 139 to 140 °C. Molecule `CN(C)c1cc(CC(C#N)=CNc2ccccc2)cc(N(C)C)c1N(C)C` yielded a melting point of 179 to 181 °C. Molecule `Cc1nc(C)c(-c2ccnc(Nc3ccc(N4CCCC4)cc3)n2)s1` had a melting point of 192 to 193 °C.

On to `O=C(c1ccc(-c2cc3cnc(Nc4cccc(Cl)c4)nc3[nH]2)cc1)N1CCOCC1`, for which the melting point is more than 250 °C.

Take `C[Si](C)(CCl)c1ccc(-c2ccccc2)cc1`: the melting point lay in the range of 30 to 40 °C. Regarding `CCN1CCC(=O)C(C(c2ccccc2)c2ccccc2)C1` (stereo unspecified), the melting point lay in the range of 54 to 58 °C. On to `Cc1cc2c(cc1Cl)C=C(C(=O)O)C(C(F)(F)F)S2` (stereo unspecified), for which the melting point fell in the range of 240 to 242 °C.

On to `CC(=O)SCC(=O)c1ccc(Cl)c(S(N)(=O)=O)c1`, for which the melting point was determined as 137 °C. The molecule `Cc1cccc(NC(=O)c2ccccc2)c1Cl` came in with a melting point of 125 to 126 °C.

Take `COc1cccc2sc(C3(c4ccc(S(N)(=O)=O)cc4)C=C(C(F)(F)F)NN3)nc12` (stereo unspecified): the melting point is 276 to 278 °C. On to `CCCCCCC(=O)Nc1cccc2c1C(=O)c1ccccc1C2=O`, for which the melting point was found to be 133 °C. On to `CC(C)=NOCc1nc2c(N)nc3ccccc3c2s1`, for which the melting point was in the range of 152 to 153 °C. The molecule `Cc1cccc(N2CC(=O)N(c3ccc(S(N)(=O)=O)cc3Cl)C2)c1` had a melting point of 198 to 202 °C. On to `O=Cc1c[nH]c2c1ccc1c3cc(Br)ccc3[nH]c12`, for which the melting point is more than 250 °C. `Cc1csc2c(Cl)c(Cl)c(O)cc12` had a melting point of 137 to 139 °C. In turn, `CC1Cc2c(N=C3OC(=O)C4=C3CCCC4)ccc(Cl)c2O1` (stereo unspecified) registered a melting point of 125 to 127 °C.

As to `O=C(NCc1ccccn1)Nc1cc(N2CC(CCc3ccccc3)OC2=O)ccn1` (stereo unspecified), the melting point was in the range of 194 to 195 °C. With `CCCOC(=O)Cc1ccc(N[C@@H](CCC(N)=O)C(=O)O)cc1`, the melting point was 178 to 179 °C. Turning to `Cc1noc(C)c1COc1ccc(-c2cc(O)c(SCCc3ccccc3)c(=O)o2)cc1`, the melting point was in the range of 152 to 154 °C.

`CC(=O)Nc1ccc2c(c1)c(-c1cc3cccnc3[nH]1)cn2C` came in with a melting point of 220 to 221 °C.

As to `Cn1nc(-c2c(F)cccc2Cl)nc1C(=O)c1ccc(Cl)cc1`, the melting point fell in the range of 108 to 111 °C. The value for `COc1ccc(C2CC(=O)N(c3ccccc3)C2)cc1OC` (stereo unspecified) was 104 °C. As to `COc1ccc2c(c1)c1c(n2CCBr)C(=O)CCC1`, the melting point was found to be 119 °C. `CNc1ccc(Cl)cc1` came in with a melting point of 72 to 74 °C.

`C[C@@H](c1ncncc1F)[C@@](Cn1cncn1)(OP(=O)(OCc1c(F)cccc1Cl)OCc1c(F)cccc1Cl)c1ccc(F)cc1F` showed a melting point of 140 to 141 °C.

Consider `CCOC(=O)CC(=O)c1cc(O)c(O)c([N+](=O)[O-])c1`, for which the melting point lay in the range of 136 to 137 °C. The value for `O=C1NCCCCC1(Br)Br` was 156 to 159 °C; that for `CC1(C)C(=O)Nc2ccc(C3=NNC(=O)CC3)cc21` was more than 300 °C. As for `O=C1Nc2ccccc2C1CCCCN1CCN(c2ccc(F)cc2)CC1` (stereo unspecified), the melting point was in the range of 113 to 115 °C. Take `CC(C)c1ccc(S(=O)(=O)NC(=O)C(Oc2cc(OCc3ccsc3)ccc2C#N)c2ccccc2)cc1` (racemic): the melting point lay within 187 to 189 °C. Take `O=C1CCCCC1c1c[nH]c2ccccc12` (stereo unspecified): the melting point was in the range of 122 to 124 °C.

Molecule `CCCCCCn1c(C)c(C(=O)N(CCCC)CCCC)c2c(CN3CCCCC3)c(O)c(C(=O)CC)cc21` had a melting point of 124 to 125 °C. Consider `CC(C)OC(=O)c1cc2c(cn1)[nH]c1cccc(Cc3ccccc3Cl)c12`, for which the melting point is 258 to 260 °C. `Cc1ccc(S(=O)(=O)NC(=O)Nc2ccccc2)cc1`: the melting point stood at 166 °C. In turn, `CN1C(=O)C2(COc3cc4c(cc32)OCCO4)c2c(OCc3ccccc3)cccc21` (stereo unspecified) displayed a melting point of 198 to 200 °C. Take `CN(C)C(=N)Nc1ccc(F)cc1-c1ccccc1`: the melting point is 160 to 161 °C. `O=C(OCc1ccccc1)c1ccc(OCc2ccc(COc3ccc(C(=O)OCc4ccccc4)cc3)cc2)cc1` displayed a melting point of 154 to 157 °C. The value for `OCc1cccc(Nc2ncc3c(n2)-c2ccccc2[C@H](c2ccccc2F)C3)c1` was 158 to 159 °C; that for `CC(C)C1Sc2ccccc2NC(=O)C1N` (stereo unspecified) was 180 to 183 °C; that for `Cc1cc2c(cc1F)N(C(N)=O)C(=O)C2` was 200 to 203 °C. As for `CC(C)c1ccc(NC(=O)C2CCCc3c(OCc4ccccc4)cccc32)cn1` (stereo unspecified), the figure is 157 °C; as for `CC(C)(O)c1cnn2c(-c3ccc(F)c(-c4cccnc4)c3)cnc2n1`, 199 to 200 °C. The molecule `NC1=Nc2ccccc2CS1` displayed a melting point of 132 to 135 °C. As for `CC(=O)c1cccnc1CN1C(=O)C(NC(=O)Nc2cccc(C)c2)N=C(c2ccccc2F)c2ccccc21` (racemic), the figure is 218 to 222 °C; as for `COc1cc(-c2nc(C(C)C)no2)cc2oc(=O)c(C)c(C)c12`, 142 °C; as for `COc1ccc(C(=O)NC(=O)Nc2ccc3c(c2)NC(=O)/C3=C\c2ccncc2)cc1`, 270 to 275 °C. In turn, `Cc1nc(CC#N)c2n1-c1ccc(Cl)cc1C(c1ccccc1Cl)=NC2` displayed a melting point of 212 to 214 °C. Turning to `CCOCc1nc2c(N)nc3ccccc3c2n1CCN1C(C)=NOC1(C)C`, the melting point is 204 to 205 °C. In turn, `Clc1ccc(C2=CCCc3cc(Cl)c(Cl)cc32)cc1` gave a melting point of 106 to 108 °C.

Molecule `Cc1cc(Nc2ccc(C(F)(F)F)cc2C(=O)O)n(-c2ccccn2)n1` gave a melting point of 228 to 229 °C. In turn, `CN(C)CCNC(=O)c1cccc2c1c(C(=O)C(=O)NC1=CC(=O)OC1)cn2Cc1ccc(Cl)cc1` displayed a melting point of 225 to 227 °C. In turn, `O=C(NCCc1ccc(O)c(O)c1)C1CC1` showed a melting point of 174 to 176 °C. As for `COc1ccccc1Oc1c(Cl)nc(-c2cccnn2)nc1NS(=O)(=O)CCc1cccc2ccccc12`, the figure is 192 °C; as for `O=C(C=P(c1ccccc1)(c1ccccc1)c1ccccc1)CSc1ccccc1`, 132 to 134 °C; as for `COc1ccc2c(c1)C(=O)c1c-2c(Cl)nc2ccccc12`, 227 to 228 °C. With `O=C1c2ccccc2C(=O)N1CCCCN1CCC(=C(c2ccccc2)c2ccccc2)CC1`, the melting point is 102 to 103 °C.

`NC(=O)c1cc2[nH]c3ccccc3c(=O)n2n1` displayed a melting point of 315 to 325 °C. As for `COc1c(NC(=O)c2ccc(Br)cc2)cccc1[N+](=O)[O-]`, the figure is 162 to 163 °C; as for `COc1cc(C)ccc1Oc1ccc([N+](=O)[O-])cc1`, 78 to 80 °C; as for `N#Cc1c(N2CCCCC2)cc(-c2cccs2)c2c1-c1ccccc1C2=O`, 172 to 174 °C.

For the molecule `COc1ccc(/C=C/c2cc(/C=C/c3ccc4cc[nH]c4c3)[nH]n2)c(OC)c1`, the melting point was 121 to 133 °C. With `N#Cc1ccc(Cc2c[nH]nn2)cc1`, the melting point was found to be 83 °C. Regarding `O=C(c1ccc(F)cc1)N1CC2CC2(c2ccccc2)C1` (stereo unspecified), the melting point is 101 to 103 °C. The value for `CCn1nc(C2CC2)c(C(=O)O)c1Cc1ccc(-c2ccccc2-c2nnn[nH]2)cc1` was 227 to 229 °C; that for `COC(=O)c1sc(C(C)(C)C)cc1NC(=O)Nc1ccc(C)cc1` was 109 to 111 °C.

Molecule `CC(O)c1ccc(-c2ccc(S(C)(=O)=O)cc2)o1` (stereo unspecified) gave a melting point of 118 to 120 °C. `O=C1NC(=O)C(c2ccc(Br)o2)O1` (stereo unspecified) returned a melting point of 126 to 129 °C.

Turning to `CC(C)(C)OC(=O)N1CCN(c2ccc(N)cc2C#N)CC1`, the melting point came to 145 °C.

With `CS(=O)(=O)Nc1ccc([N+](=O)[O-])cc1Br`, the melting point was 148 to 151 °C.

`O=C(O)Cc1cc(-c2ccccc2)sc1NC(=O)c1ccccc1` came in with a melting point of 121 to 122 °C. For `Cc1ccc(N)c(-c2nc(C(F)(F)F)cs2)c1`, the melting point lay within 100 to 103 °C. `Oc1ccc2c(c1)OCC(c1ccc(C(F)(F)F)cc1)C2c1ccc(OCCN2CCCCC2)cc1` (stereo unspecified) gave a melting point of 117 to 119 °C.

`CC(c1ccccc1)N1Cc2cncn2C(c2ccc(C#N)cc2)C1=O` (stereo unspecified) registered a melting point of 157 to 158 °C. As for `C=Cc1ccc(S(N)(=O)=O)cc1`, the figure is 130 to 132 °C.

In turn, `O=C(c1ccc(Cl)cc1)N1N=C(C(F)(F)F)CC1(O)c1cc(F)ccc1F` (stereo unspecified) registered a melting point of 110 to 113 °C. `O=C1CCC(N2C(=O)c3cccc(OCc4ccc(CN5CCC(c6ccc(F)cc6F)CC5)cc4)c3C2=O)C(=O)N1` (stereo unspecified) returned a melting point of 153 to 155 °C. With `O=S(=O)(NCCCCC1Cc2ccccc2C1)c1ccc(Cl)cc1`, the melting point amounted to 77 °C. For the molecule `O=S(=O)(NCCc1ccc(CCl)cc1)c1ccc(Cl)cc1`, the melting point was in the range of 96 to 98 °C. As for `Cc1ccnc2c1C(=O)CC(c1cc(F)ccc1F)C2` (stereo unspecified), the melting point was 75 to 76 °C. The molecule `O=C(NCCc1c[nH]c2ccc(C(=O)O)cc12)OCc1ccccc1` showed a melting point of 186 to 188 °C. The molecule `Cc1ccc(S(=O)(=O)N[C@@H](C)C(=O)Oc2csc(-c3ccccc3)c2)cc1` gave a melting point of 85 to 87 °C. Molecule `O=C(c1cc(I)c(O)c(I)c1)c1c(Cc2ccccc2)oc2ccccc12` returned a melting point of 153 to 154 °C. On to `CC(C)CC(SCc1ccccc1)c1c(O)cc(-c2ccccc2)oc1=O` (stereo unspecified), for which the melting point was 153 to 155 °C.
